Measured values: US5266328A, “Laminin a chain polypeptides from the carboxy terminal globular domain” (Regents of the University of Minnesota, priority 1990, dated 1993)

Columns and labels:
[1] = test system: HT-1080 human fibrosarcoma cells; assay: Cell spreading assay; type: cell-based; conditions: for Surface Area Occuppied by a Cell / Surface Area Occupied by a Cell: wells coated at 100 μg/ml, 2 1/2 hour incubation; for Surface Area Occuppied by a Cell: HT-1080, Table VII; for Surface Area Occupied by a Cell: human fibrosarcoma (HT1080), Table VI
Experimental: (§1) Spreading of the adherent cells was evaluated by performing adhesion assays similar to those described above. Twenty-four well tissue culture plates (Becton Dickinson and Co., Lincoln Park, N.J.) were coated with 300 μl of laminin, synthetic peptides, or BSA at 100 μg/ml, then blocked with 2 mg/ml BSA in PBS. Three hundred microliters of a cell suspension at 5×10^4 cells/ml was added to each well, and after a 21/2 hour incubation, nonadherent cells were aspirated out of the wells. Adherent cells were fixed with 2% glutaraldehyde in PBS at 23° C. for one hour. The glutaraldehyde was then removed and the cells were stained by two different techniques. For photographic purposes, the cells were stained with Diff-Quik Solution I (American Scientific Products, McGaw Park, Ill.) for 10 minutes at 23° C. Solution I was removed, then Diff-Quik Solution II was added and the cells were stained for another 10 minutes at 23° C. Wells were washed with PBS, then representative cells were photographed with a Nikon DIAPHOT inverted phase microscope using Panatomic X Film ASA32 (Eastman Kodak, Rochester, N.Y.). Adherent cells to be quantitated for spreading were stained overnight at 23° C. with 500 μl of a solution containing 0.12% (w/v) Coomassie Brilliant Blue R (Sigma Chemical Co.), 5% (v/v) acetic acid, and 50% (v/v) ethanol. Wells were washed three times with 500 μl of PBS and cell spreading was then quantitated by measuring the average surface area occupied by a cell using an Opti-Max Image Analyzer. Thirty cells were measured per well; each experiment was done in quadruplicate and repeated three times. In all cases, the cells spread on the peptides to occupy an area about 60% of that seen on laminin-coated surfaces.

[2] = test system: murine fibrosarcoma (MM) cells; assay: Cell spreading assay; type: cell-based; conditions: wells coated at 100 μg/ml, 2 1/2 hour incubation
Experimental: as §1

[3] = test system: human renal (SN12 PM6) cells; assay: Cell spreading assay; type: cell-based; conditions: wells coated at 100 μg/ml, 2 1/2 hour incubation
Experimental: as §1

[4] = test system: human renal (SN12C) cells; assay: Cell spreading assay; type: cell-based; conditions: wells coated at 100 μg/ml, 2 1/2 hour incubation
Experimental: as §1

[5] = test system: eight different cell lines of murine or human origin; assay: Direct cell adhesion, summary over eight tumor cell lines; type: cell-based; conditions: summary of Table IV over eight cell lines
Description: (§2) The murine melanoma K-1735-C10 (low metastatic) and K-1735-M4 (high metastatic) cell lines, murine UV-2237-MM fibrosarcoma cell line, human renal carcinoma SN12 C (low metastatic) and SN12 PM-6 (high metastatic) cell lines, and human colon carcinoma KM12 C (low metastatic) and KM12 SM (high metastatic) cell lines were originally provided by Dr. I. J. Fidler (M.D., Anderson Hospital, University of Texas Health Sciences Center, Houston, Tex.). The human fibrosarcoma HT-1080 cell line was obtained from the ATCC. […]
(§3) The direct adhesion of cells to protein or peptide coated surfaces was performed as described in Skubitz et al., Exp. Cell Res., 173, 349-360 (1987) and Charonis et al., supra (1988). […] Adherent cells were solubilized and quantitated in a scintillation counter. […] The solubilized cells were then quantitated using a liquid scintillation counter.
(§4) Instead of attempting to characterize the cell binding activity of all 14 of the synthetic peptides, a number of peptides from each of the three heparin binding categories of peptides were evaluated. […]

[6] = test system: human fibrosarcoma HT-1080 cell line; assay: Direct cell adhesion to peptide-coated surfaces; type: cell-based; conditions: surface coated with 1 μg; human fibrosarcoma (HT1080)
Description: as §2, §3, §4
Radiolabeled HT-1080 human fibrosarcoma cells were incubated in the wells for 30 minutes and the adhesion of cells was quantitated.

[7] = test system: human renal carcinoma SN12 PM-6 (high metastatic) cell line; assay: Direct cell adhesion to peptide-coated surfaces; type: cell-based; conditions: surface coated with 1 μg; human renal (SN12 PM6)
Description: (§5) The murine melanoma K-1735-C10 (low metastatic) and K-1735-M4 (high metastatic) cell lines, murine UV-2237-MM fibrosarcoma cell line, human renal carcinoma SN12 C (low metastatic) and SN12 PM-6 (high metastatic) cell lines, and human colon carcinoma KM12 C (low metastatic) and KM12 SM (high metastatic) cell lines were originally provided by Dr. I. J. Fidler (M.D., Anderson Hospital, University of Texas Health Sciences Center, Houston, Tex.). The human fibrosarcoma HT-1080 cell line was obtained from the ATCC. The MM fibrosarcoma cell line was maintained in DME (GIBCO Laboratories, Grand Island, N.Y.) containing 10% FBS, the murine melanomas were maintained in DMEM containing 10% calf serum, the human fibrosarcoma cells were maintained in EMEM containing 10% heat inactivated FBS, and the human renal and colon carcinoma cells were grown in EME containing 10% FBS, vitamins, and 1 mM sodium pyruvate. Cells were passaged for 4 to 5 weeks and then replaced from frozen stocks of early passage cells to minimize phenotypic drift. Cells were maintained at 37° C. in a humidified incubator containing 5% CO2.
(§6) The direct adhesion of cells to protein or peptide coated surfaces was performed as described in Skubitz et al., Exp. Cell Res., 173, 349-360 (1987) and Charonis et al., supra (1988). Briefly, radiolabeled cells were added to 96-well microtiter plates coated with various concentrations of synthetic peptides, laminin, or BSA (0.02 μg/well-50 μg/well from 50 μl solutions) for various lengths of time. After the incubation period, loosely or nonadherent cells were removed by washing the wells three times. Adherent cells were solubilized and quantitated in a scintillation counter. More specifically, cultures of cells which were 60-80% confluent were metabolically labeled for 24 hours with the addition of 3 μCi/ml of ^3 H-td (tritiated thymidine). On the day of the assay, the cells were harvested by trypsinization, the trypsin was inhibited by the addition of serum, and the cells were washed free of this mixture and resuspended in DMEM buffered with HEPES at pH 7.2. The adhesion medium also contained 2 mg/ml BSA. The cells were adjusted to a concentration of 3-4×10^4 /ml, and 100 μl of this cell suspension was added to the wells. The assay mixture was then incubated at 37° C. for 120 minutes. At the end of the incubation, the wells were washed with warm DMEM/Hepes containing 2 mg/ml BSA, and the adherent population was solubilized with 0.5N NaOH contained 1% SDS. The solubilized cells were then quantitated using a liquid scintillation counter.
(§7) Instead of attempting to characterize the cell binding activity of all 14 of the synthetic peptides, a number of peptides from each of the three heparin binding categories of peptides were evaluated. Microtiter wells were adsorbed with the peptides, laminin, or BSA and a variety of tumor cell lines were tested for the ability to adhere to the ligands. The eight different cell lines selected for this study were of murine or human origin and, in most cases, of either high or low metastatic capacity. […] Many of the peptides that were very good at binding heparin and cells were also capable of inhibiting the adhesion of various cells to surfaces coated with laminin (see below).

[8] = test system: murine melanoma K-1735-M4 (high metastatic) cell line; assay: Direct cell adhesion to peptide-coated surfaces; type: cell-based; conditions: surface coated with 1 μg
Description: as §5, §6, §7

[9] = test system: murine melanoma K-1735-C10 (low metastatic) cell line; assay: Direct cell adhesion to peptide-coated surfaces; type: cell-based; conditions: surface coated with 1 μg
Description: as §5, §6, §7

[10] = test system: murine UV-2237-MM fibrosarcoma cell line; assay: Direct cell adhesion to peptide-coated surfaces; type: cell-based; conditions: surface coated with 1 μg
Description: as §5, §6, §7

[11] = test system: human colon carcinoma KM12 SM (high metastatic) cell line; assay: Direct cell adhesion to peptide-coated surfaces; type: cell-based; conditions: surface coated with 1 μg
Description: as §5, §6, §7

[12] = test system: human colon carcinoma KM12 C (low metastatic) cell line; assay: Direct cell adhesion to peptide-coated surfaces; type: cell-based; conditions: surface coated with 1 μg
Description: as §5, §6, §7

[13] = test system: human renal carcinoma SN12 C (low metastatic) cell line; assay: Direct cell adhesion to peptide-coated surfaces; type: cell-based; conditions: surface coated with 1 μg; human renal (SN12C)
Description: as §5, §6, §7

[14] = Solid-phase binding of 3H-heparin to peptides adsorbed to plastic plates (RLBA)
Experimental: The binding of ^3 H-heparin to laminin A chain peptides was measured in a direct solid phase binding assay as described below, whereby various amounts of the peptides were adsorbed to plates and ^3 H-heparin was added to each well. More specifically, the binding of ^3 H-heparin (0.3 mCi/mg; Du Pont - New England Nuclear Research Products, Wilmington, Del.) to laminin, synthetic peptides, and bovine serum albumin (BSA) (fatty acid free, fraction V, ICN Immunobiologicals) was quantititated by a solid-phase RLBA in 96-well polystyrene Immulon 1 plates (Dynatech Laboratories, Inc., Alexandria, Va.) as described by Skubitz et al., supra (1988). Specifically, 50 microliters of the various proteins at various concentrations (0.2 μg/well-5.0 μg/well) in PBS containing 0.02% NaN3 was added to each well and dried overnight at 29° C. The next day, 200 μl of 2 mg/ml BSA in PBS was added to each well, followed by a 2 hour incubation at 37° C. After removal of this buffer, 50 μl of ^3 H-heparin (200,000 dpm) was added in RLBA buffer (20 mM Tris, pH 6.8 containing 50 mM NaCl and 2 mg/ml ovalbumin) and the wells were incubated at 37° C. for 2 hours. Unbound ^3 H-heparin was removed by washing three times with wash buffer (RLBA buffer containing 0.1% CHAPS). Tritiated heparin was solubilized by incubation with 200 μl of 0.05N NaOH and 1% SDS for 30 minutes at 60° C. and quantitated in a Beckman LS-3801 scintillation counter.
The above experimental procedure was repeated to determine the percentage of ^3 H-heparin that would adhere to 2 μg/well of each polypeptide after a two-hour incubation in increasing concentrations of salt (NaCl).

[15] = test system: murine melanoma (C10) cells; assay: Inhibition of cell adhesion to laminin-coated surfaces; type: cell-based; conditions: soluble peptide 10 μg/ml, surface coated with 1.5 μg of laminin
Description: as §5
(§8) Inhibition of cell adhesion with synthetic peptides was performed using assays similar to those described by Skubitz et al., supra (1987). Briefly, radiolabeled cells at 5×10^4 /ml were incubated for 30 minutes with various concentrations of synthetic peptides (1.0 μg/ml-200 μg/ml) in DME/Hepes containing 2 mg/ml BSA. One hundred microliters of the cell suspension was then added to wells precoated with 1.5 μg of laminin, 1.0 μg of type IV collagen, or 1.0 μg of fibronectin. The cells were incubated for 30 minutes at 37° C., then the wells were washed and adherent cells were quantitated as previously described [Skubitz et al., supra (1987)]. Cell viability after a one hour incubation in the presence of the "inhibitors" was assessed by trypan blue dye exclusion.

[16] = test system: murine fibrosarcoma (MM) cells; assay: as above; type: cell-based; conditions: soluble peptide 10 μg/ml, surface coated with 1.5 μg of laminin
Description: as §5, §8

[17] = test system: human renal (SN12 PM6) cells; assay: as above; type: cell-based; conditions: soluble peptide 10 μg/ml, surface coated with 1.5 μg of laminin
Description: as §5, §8

[18] = test system: human renal (SN12C) cells; assay: as above; type: cell-based; conditions: soluble peptide 10 μg/ml, surface coated with 1.5 μg of laminin
Description: as §5, §8

[19] = test system: human colon (KM12 C) cells; assay: as above; type: cell-based; conditions: soluble peptide 10 μg/ml, surface coated with 1.5 μg of laminin
Description: as §5, §8

[20] = test system: human fibrosarcoma (HT1080) cells; assay: as above; type: cell-based; conditions: soluble peptide 20 μg/ml, surface coated with 1.5 μg of laminin
Description: as §5, §8

[21] = test system: murine melanoma (M4) cells; assay: as above; type: cell-based; conditions: soluble peptide 10 μg/ml, surface coated with 1.5 μg of laminin
Description: as §5, §8

Substance | Surface Area Occuppied by a Cell [1] | Surface Area Occupied by a Cell [1] [μm^2] | Surface Area Occupied by a Cell [2] [μm^2] | Surface Area Occupied by a Cell [3] [μm^2] | Surface Area Occupied by a Cell [4] [μm^2] | Percentage of Cells Adhered to Surface [6] [%] | Percentage of Cells Adhered to Surface [7] [%] | Percentage of Cells Adhered to Surface [8] [%] | Percentage of Cells Adhered to Surface [9] [%] | Percentage of Cells Adhered to Surface [10] [%] | Percentage of Cells Adhered to Surface [12] [%] | Percentage of Cells Adhered to Surface [13] [%] | other results
KQNCLSSRASFRGCVRNLRLSR [Peptide R30, laminin A chain residues 3011-3032] | 392 +/- 27 um2 | 392 ± 27 | 291 ± 21 | 311 ± 19 | 292 ± 22 | 92 | 67 | 25 | 82 | 56 | 48 | 84 | HT-1080 cell spreading, in words ([1]; ranking of Table VII): promoted the most cell spreading; promotion of cell adhesion, in words [5]: capable of promoting the adhesion of all eight cell lines; Percentage of Cells Adhered to Surface [11]: 69%; Heparin Binding (bound ^3 H-heparin as percent of input) ([14]; One microgram peptide adsorbed, 200,000 dpm ^3 H-heparin, 20 mM Tris pH 6.8, 50 mM NaCl, 2 mg/ml ovalbumin): **** (>10% [****]); Bound ^3 H-heparin as percent of input, 0.05M NaCl ([14]; Two micrograms peptide adsorbed, 0.02M Tris pH 6.8, 0.05M NaCl, 2 hr 37 C): **** (>10% (****)); Bound ^3 H-heparin as percent of input, 0.15M NaCl ([14]; Two micrograms peptide adsorbed, 0.02M Tris pH 6.8, 0.15M NaCl, 2 hr 37 C): **** (>10% (****)); Bound ^3 H-heparin as percent of input, 0.5M NaCl ([14]; Two micrograms peptide adsorbed, 0.02M Tris pH 6.8, 0.5M NaCl, 2 hr 37 C): *** (6.0-10.0% (***)); Bound ^3 H-heparin as percent of input, 1.0M NaCl ([14]; Two micrograms peptide adsorbed, 0.02M Tris pH 6.8, 1.0M NaCl, 2 hr 37 C): * (2.0-3.9% (*)); Heparin binding activity group ([14]; grouping of the Table II results in words): very good heparin binding; Percentage Inhibition of Laminin-Mediated Cell Adhesion [15]: 22%; Percentage Inhibition of Laminin-Mediated Cell Adhesion [16]: 25%; Percentage Inhibition of Laminin-Mediated Cell Adhesion [17]: 44%; Percentage Inhibition of Laminin-Mediated Cell Adhesion [18]: 0%; Percentage Inhibition of Laminin-Mediated Cell Adhesion [19]: 59%; Percentage Inhibition of Laminin-Mediated Cell Adhesion [20]: 51%; Percentage Inhibition of Laminin-Mediated Cell Adhesion [21]: 38%
Laminin: extracellular matrix glycoprotein isolated from the EHS murine tumor; positive control | 610 +/- 62 um2 | 610 ± 62 | 443 ± 32 | 550 ± 29 | 520 ± 14 | 41 | 36 | 13 | 58 | 53 | 11 | 28 | 
